From patent US8901118B2, “Compounds and methods for kinase modulation, and indications therefor” (Plexxikon Inc., priority 2010, dated 2014)
pIC50: −log10 of the molar value.

Target: T1, Flt-3 kinase (Homo sapiens, UniProt P36888)
T1 sequence (P36888 27-993): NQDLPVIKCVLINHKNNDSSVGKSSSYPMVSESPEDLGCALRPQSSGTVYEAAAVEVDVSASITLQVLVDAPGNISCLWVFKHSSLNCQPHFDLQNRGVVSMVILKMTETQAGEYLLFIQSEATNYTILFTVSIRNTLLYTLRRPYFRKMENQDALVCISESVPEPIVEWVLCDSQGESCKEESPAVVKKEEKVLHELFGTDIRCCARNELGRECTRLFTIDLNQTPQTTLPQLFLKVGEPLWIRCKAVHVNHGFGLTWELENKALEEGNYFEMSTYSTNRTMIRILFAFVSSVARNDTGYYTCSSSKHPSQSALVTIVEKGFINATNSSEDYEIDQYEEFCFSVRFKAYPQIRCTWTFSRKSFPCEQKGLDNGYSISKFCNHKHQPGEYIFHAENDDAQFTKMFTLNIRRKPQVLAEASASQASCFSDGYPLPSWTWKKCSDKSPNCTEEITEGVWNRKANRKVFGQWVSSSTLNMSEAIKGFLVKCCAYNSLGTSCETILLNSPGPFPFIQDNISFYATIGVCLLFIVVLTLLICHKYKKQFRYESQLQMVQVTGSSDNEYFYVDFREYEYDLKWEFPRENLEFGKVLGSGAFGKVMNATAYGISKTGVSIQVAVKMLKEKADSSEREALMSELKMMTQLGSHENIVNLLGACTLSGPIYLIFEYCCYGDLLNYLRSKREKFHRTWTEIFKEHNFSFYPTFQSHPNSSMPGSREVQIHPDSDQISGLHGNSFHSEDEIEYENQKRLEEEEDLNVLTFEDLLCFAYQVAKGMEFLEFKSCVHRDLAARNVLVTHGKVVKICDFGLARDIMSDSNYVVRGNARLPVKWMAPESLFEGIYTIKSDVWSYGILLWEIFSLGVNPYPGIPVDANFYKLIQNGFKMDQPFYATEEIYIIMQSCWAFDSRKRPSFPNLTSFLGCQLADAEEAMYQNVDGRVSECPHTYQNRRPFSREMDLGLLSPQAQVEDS
Assay: Flt-3 kinase biochemical activity assay (AlphaScreen)
Details: 100 μM ATP; read-out: Biochemical Inhibition IC50 Flt3
Procedure: In one assay the biochemical activity IC50 values are determined with respect to inhibition of Flt-3 kinase activity, where inhibition of phosphorylation of a peptide substrate is measured as a function of compound concentration. Compounds to be tested, dissolved in DMSO (1 μL), are added to a white 384-well plate (Costar #3705). Working stocks of Flt-3 kinase (Invitrogen), biotin-(E4Y)10 substrate (Upstate Biotech, Cat#12-440), and ATP (Sigma, Cat#A-3377) are prepared in 25 mM Hepes pH 7.5, 5 mM MgCl2, 5 mM MnCl2, 1 mM DTT, and 0.01% Tween-20. All components are added to the 384-well plate for a final concentration of 1 ng/well Flt-3, 30 nM biotin-(E4Y)10 and 100 μM ATP in a volume of 20 μL. Each sample is at 5% DMSO. The plate is then incubated for 1 hour at room temperature. Just before use, working stocks of donor and acceptor beads from the AlphaScreen PY20 Detection Kit (PerkinElmer, Cat#676601M) are prepared in 25 mM Hepes pH 7.5, pH 7.4, 100 mM EDTA. 0.3% BSA. To stop the reaction, the plate is uncovered in the dark and 5 μL of Donor Beads solution (Streptavidin beads) is added to each well. The plate is incubated at room temperature for 20 minutes. Five microliters of Acceptor Beads solution (PY20 coated beads) are then added to each well. The final concentration of each bead is 10 μg/mL. The plates are incubated at room temperature for 60 minutes. Fluorescence signal is recorded on the Envision reader. Phosphorylated substrate results in binding of the PY20 antibody and association of the donor and acceptor beads such that signal correlates with kinase activity. The signal vs. compound concentration is used to determine the IC50.

pIC50 | SMILES
> 7.00 | Cc1cnc2[nH]cc(Cc3cnc(Nc4ccc(F)cc4)nc3)c2c1 [Compound P-3010, (4-Fluoro-phenyl)-[5-(5-methyl-1H-pyrrolo[2,3-b]pyridin-3-ylmethyl)-pyrimidin-2-yl]-amine]
> 8.00 | Clc1ccc(Nc2ncc(Cc3c[nH]c4ncc(Cl)cc34)cn2)cc1 [Compound P-3011, (4-Chloro-phenyl)-[5-(5-chloro-1H-pyrrolo[2,3-b]pyridin-3-ylmethyl)-pyrimidin-2-yl]-amine]
> 7.00 | Fc1ccc(Nc2ncc(Cc3c[nH]c4ncc(Cl)cc34)cn2)cc1 [Compound P-3012, [5-(5-Chloro-1H-pyrrolo[2,3-b]pyridin-3-ylmethyl)-pyrimidin-2-yl]-(4-fluoro-phenyl)-amine]
< 6.00 | Fc1nc(NC2CCC(F)(F)CC2)ccc1Cc1c[nH]c2ncc(Cl)cc12 [Compound P-3013, [5-(5-Chloro-1H-pyrrolo[2,3-b]pyridin-3-ylmethyl)-6-fluoro-pyridin-2-yl]-(4,4-difluoro-cyclohexyl)-amine]
> 6.00 | Fc1ccccc1Nc1ncc(Cc2c[nH]c3ncc(Cl)cc23)cn1 [Compound P-3014, [5-(5-Chloro-1H-pyrrolo[2,3-b]pyridin-3-ylmethyl)-pyrimidin-2-yl]-(2-fluoro-phenyl)-amine]
> 7.00 | Clc1cnc2[nH]cc(Cc3cnc(Nc4ccccc4Cl)nc3)c2c1 [Compound P-3015, (2-Chloro-phenyl)-[5-(5-chloro-1H-pyrrolo[2,3-b]pyridin-3-ylmethyl)-pyrimidin-2-yl]-amine]

Tested on: BCR-FMS BaF3 cells
Assay: Splenomegaly mouse model, BCR-FMS BaF3 cells
Type: in vivo
Details: dosed at 5 mg/kg
Procedure: BaF3 cells are engineered with any of BCR-FMS, BCR-TRK1 or BCR-TRK2 to assess in vivo inhibitory effects of Fms, TrkA or TrkB inhibition, respectively. BaF3 cells are maintained in growth media (RPMI containing 10% FBS, 1% PenStrep, 1% NEAA, and 1% L-Glutamine, supplemented with 5% murine IL-3 and 1 mg/mL G418). Four days prior to start, 2×10^6 cells are inoculated into a T150 vented flask using the growth media and incubated at 37° C. in 5% CO2 for three days. One day prior to start, cells are collected by centrifugation and are suspended in growth media without IL-3. On the day of cell implant, the cells are collected by centrifugation, rinsed 3×20 mL with RPMI, then are suspended in 5.4 mL of media and counted, then adjusted with additional RPMI as needed to give 5×10^7 cells/mL. On day 1, female nu/nu mice at 5-6 weeks of age are injected intravenously with BaF3 cells injected injecting 0.1 mL (5×10^6) cells in the tail vein (mice without cell injected are included as control group). Compound stocks in dimethylsulfoxide are stored at room temperature protected from light. Stocks are diluted prior to dosing, diluting 22 μL of compound stock into 858 μL of diluent (or 50 μL into 1950 μL) to provide vehicle of 1.0% Polysorbate 80, 0.5% hydroxypropyl methyl cellulose, with final dimethylsulfoxide at 2.5% in all dosing suspensions and vehicle control. Dosing suspension is prepared prior to use, mixing by inversion and sonication in a water bath to make a uniform suspension. On days 10-18, mice are treated with vehicle only or the desired level of compound in vehicle, ˜0.2 mL per 25 gm mouse, once a day by oral gavage, or in some instances, twice per day. On day 18, mice are administered a final dose and two hours later a plasma sample is taken. At four hours following the final dose, mice are sacrificed, an additional plasma sample is collected and mouse spleens are removed and weighed. The average spleen weight of vehicle control group mice is compared to the average spleen weight of the test compound mice. Percent spleen growth inhibition is calculated as 100×[(spleen weight vehicle control-spleen weight test compound)/spleen weight vehicle control]. In some instances, the compounds were not tested in all of the assays as indicated by NA in the table below.

SMILES | % spleen growth inhibition, Fms
O=C(c1ccc(Nc2ccc(C3CC3)nc2)nc1F)c1c[nH]c2ncnc(NCC(F)(F)F)c12 [Compound P-4090, [6-[(6-cyclopropyl-3-pyridyl)amino]-2-fluoro-3-pyridyl]-[4-(2,2,2-trifluoroethylamino)-7H-pyrrolo[2,3-d]pyrimidin-5-yl]methanone] | 38%
CCNc1ncnc2[nH]cc(C(=O)c3ccc(Nc4ccc(CC)nc4)nc3F)c12 [Compound P-4123, [4-(ethylamino)-7H-pyrrolo[2,3-d]pyrimidin-5-yl]-[6-[(6-ethyl-3-pyridyl)amino]-2-fluoro-3-pyridyl]methanone] | 14%

Same assay, conditions: dosed once per day at 10 mg per kg

SMILES | % spleen growth inhibition, Fms
Cc1cnc2[nH]cc(Cc3cnc(Nc4ccc(F)cc4)nc3)c2c1 [Compound P-3010, (4-Fluoro-phenyl)-[5-(5-methyl-1H-pyrrolo[2,3-b]pyridin-3-ylmethyl)-pyrimidin-2-yl]-amine] | 47%
Fc1nc(NC2CCC(F)(F)CC2)ccc1Cc1c[nH]c2ncc(Cl)cc12 [Compound P-3013, [5-(5-Chloro-1H-pyrrolo[2,3-b]pyridin-3-ylmethyl)-6-fluoro-pyridin-2-yl]-(4,4-difluoro-cyclohexyl)-amine] | 48%
O=C(c1ccc(NC2CCC(F)(F)CC2)nc1F)c1c[nH]c2ncnc(NCC(F)(F)F)c12 [Compound P-4061, [6-[(4,4-difluorocyclohexyl)amino]-2-fluoro-3-pyridyl]-[4-(2,2,2-trifluoroethylamino)-7H-pyrrolo[2,3-d]pyrimidin-5-yl]methanone] | 48%
O=C(c1ccc(NC2CCC(F)(F)CC2)nc1F)c1c[nH]c2ncnc(NC3CC3)c12 [Compound P-4062, [4-(cyclopropylamino)-7H-pyrrolo[2,3-d]pyrimidin-5-yl]-[6-[(4,4-difluorocyclohexyl)amino]-2-fluoro-3-pyridyl]methanone] | 76%
COc1ccc(Nc2ccc(C(=O)c3c[nH]c4ncnc(NCC(F)(F)F)c34)c(F)n2)cn1 [Compound P-4084, [2-fluoro-6-[(6-methoxy-3-pyridyl)amino]-3-pyridyl]-[4-(2,2,2-trifluoroethylamino)-7H-pyrrolo[2,3-d]pyrimidin-5-yl]methanone] | 6.2%
CNc1ncnc2[nH]cc(C(=O)c3ccc(NC4CCCCC4)nc3Cl)c12 [Compound P-4110, [2-chloro-6-(cyclohexylamino)-3-pyridyl]-[4-(methylamino)-7H-pyrrolo[2,3-d]pyrimidin-5-yl]methanone] | 30%
Cc1ccc(Nc2ccc(C(=O)c3c[nH]c4ncnc(NCC(F)(F)F)c34)c(F)n2)cn1 [Compound P-4112, [2-fluoro-6-[(6-methyl-3-pyridyl)amino]-3-pyridyl]-[4-(2,2,2-trifluoroethylamino)-7H-pyrrolo[2,3-d]pyrimidin-5-yl]methanone] | 9.5%
CCc1ccc(Nc2ccc(C(=O)c3c[nH]c4ncnc(NCC(F)(F)F)c34)c(F)n2)cn1 [Compound P-4120, [6-[(6-ethyl-3-pyridyl)amino]-2-fluoro-3-pyridyl]-[4-(2,2,2-trifluoroethylamino)-7H-pyrrolo[2,3-d]pyrimidin-5-yl]methanone] | 37%
CCc1ccc(Nc2ccc(C(=O)c3c[nH]c4ncnc(NC)c34)c(F)n2)cn1 [Compound P-4124, [6-[(6-ethyl-3-pyridyl)amino]-2-fluoro-3-pyridyl]-[4-(methylamino)-7H-pyrrolo[2,3-d]pyrimidin-5-yl]methanone] | 20%
